Six molecules from patent US20160271263A1 (Novo Nordisk A/S, priority 2010, published 2016) can be followed below.

Like-named read-outs stand apart in the source and are kept apart here. Numbered stars: 1 amine (or outer) side, 2 acyl side, 3 side chain; on linkers, the order of the positions; unused ones are H or OH. Square brackets hold non-standard residues; d marks the D form. Side chains are listed from the residue outwards. Peptide text beside a SMILES is read from it. * marks the point of attachment. C18 diacid = O=C(O)CCCCCCCCCCCCCCCCC(=O)*; γGlu = O=C(O)[C@H](CCC(=O)[*:2])N[*:1]; AEEA = NCCOCCOCC(=O)O

One series concerns the target DPP-IV (Homo sapiens, UniProt P27487). The series can be described thus: in vitro. As to the method:
10 μM of peptide was incubated with DPP-IV (2 μg/ml) in duplicate at 37° C. in a HEPES buffer to which 0.005% Tween20 were added. […] The samples were analysed by LC-MS for parent peptide. Data were plotted according to 1st kinetics and the stability was reported as half-lives.

For series [1], the target named is T1, glucagon receptor (Homo sapiens, UniProt P47871). The series can be described thus: cell-based.
Procedure: (§1) The cells (14000 per well) were incubated (37° C., 5% CO2) overnight in 384-well plates. Next day the cells were loaded with a calcium responsive dye that only distributed into the cytoplasm. Probenecid, an inhibitor of the organic anion transporter, was added to prevent the dye from leaving the cell. A PDE inhibitor was added to prevent formatted cAMP from being degraded. […] End point data were collected after 6 minutes. An increase in intracellular cAMP was proportional to an increased in calcium concentrations in the cytoplasm. […] EC50-values were calculated in Prism5.
Another series in a line: in vivo. As to conditions: male, Sprague Dawley, rat, plasma.
In series [2] the target is T1, glucagon receptor. The following applies: read-out: Assay (I) Glucagon [EC50]; Table 1; HEK-293 cells, end point data after 6 minutes.
Procedure: as §1

T1 sequence (P47871 26-477): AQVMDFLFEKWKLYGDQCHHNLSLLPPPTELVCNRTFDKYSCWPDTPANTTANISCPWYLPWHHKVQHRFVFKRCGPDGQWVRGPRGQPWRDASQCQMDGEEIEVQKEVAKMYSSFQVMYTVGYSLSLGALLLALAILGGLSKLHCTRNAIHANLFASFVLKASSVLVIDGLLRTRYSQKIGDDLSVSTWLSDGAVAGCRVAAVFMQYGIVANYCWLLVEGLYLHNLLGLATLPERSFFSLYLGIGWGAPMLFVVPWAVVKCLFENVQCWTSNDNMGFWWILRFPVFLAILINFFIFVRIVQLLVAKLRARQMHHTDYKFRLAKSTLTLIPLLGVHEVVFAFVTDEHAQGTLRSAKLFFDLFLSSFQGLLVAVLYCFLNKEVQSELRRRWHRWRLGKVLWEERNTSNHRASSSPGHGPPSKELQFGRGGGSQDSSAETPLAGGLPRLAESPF
Chain of DPP-IV (P27487 whole entry, species assumed): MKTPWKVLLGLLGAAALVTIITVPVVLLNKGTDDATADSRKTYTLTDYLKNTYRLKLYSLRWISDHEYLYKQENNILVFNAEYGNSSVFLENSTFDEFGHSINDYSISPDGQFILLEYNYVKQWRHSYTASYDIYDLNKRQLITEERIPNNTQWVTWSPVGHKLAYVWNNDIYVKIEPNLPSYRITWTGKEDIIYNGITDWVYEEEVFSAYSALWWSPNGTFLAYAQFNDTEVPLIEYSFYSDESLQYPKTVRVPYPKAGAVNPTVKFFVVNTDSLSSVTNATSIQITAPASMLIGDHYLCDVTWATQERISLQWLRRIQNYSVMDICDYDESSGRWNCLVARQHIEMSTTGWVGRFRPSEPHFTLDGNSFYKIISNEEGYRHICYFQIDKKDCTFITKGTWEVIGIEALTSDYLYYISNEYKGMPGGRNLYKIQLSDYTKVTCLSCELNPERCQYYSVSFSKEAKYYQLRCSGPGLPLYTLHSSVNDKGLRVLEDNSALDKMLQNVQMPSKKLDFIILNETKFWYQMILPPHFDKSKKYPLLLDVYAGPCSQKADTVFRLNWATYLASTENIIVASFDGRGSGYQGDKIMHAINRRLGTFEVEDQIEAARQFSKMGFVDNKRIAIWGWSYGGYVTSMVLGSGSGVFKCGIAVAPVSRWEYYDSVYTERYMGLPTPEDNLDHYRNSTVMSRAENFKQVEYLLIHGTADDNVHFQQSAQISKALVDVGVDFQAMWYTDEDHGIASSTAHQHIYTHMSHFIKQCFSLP
Procedure for in vivo: Fifteen male rats (Sprague Dawley, 400 g, Taconic Europe) were divided into three groups of five rats. The rats were dosed at t=0 with either 15 nmol/kg IV, 30 nmol/kg SC, or 100 nmol/kg, respectively. The IV dosing was performed via the tail vein while the rats were shortly under isoflurane anaesthesia. […] Plasma samples were stored on freeze until analysed by LCMS.

Regarding `CC(C)C[C@H](NC(=O)[C@H](Cc1ccc(O)cc1)NC(=O)[C@H](CCCCN)NC(=O)[C@H](CO)NC(=O)[C@H](Cc1ccc(O)cc1)NC(=O)[C@H](CC(=O)O)NC(=O)[C@H](CO)NC(=O)[C@@H](NC(=O)[C@H](Cc1ccccc1)NC(=O)[C@@H](NC(=O)CNC(=O)[C@H](CCC(N)=O)NC(=O)[C@H](CO)NC(=O)[C@@H](N)Cc1c[nH]cn1)[C@@H](C)O)[C@@H](C)O)C(=O)N[C@@H](CC(=O)O)C(=O)N[C@@H](CO)C(=O)N[C@@H](CCCCN)C(=O)N[C@@H](CCCCN)C(=O)N[C@@H](C)C(=O)N[C@@H](CCC(N)=O)C(=O)N[C@@H](CCC(=O)O)C(=O)N[C@@H](Cc1ccccc1)C(=O)N[C@H](C(=O)N[C@@H](CCCCNC(=O)COCCOCCNC(=O)COCCOCCNC(=O)CC[C@H](NC(=O)CCCCCCCCCCCCCCCCC(=O)O)C(=O)O)C(=O)N[C@@H](Cc1c[nH]c2ccccc12)C(=O)N[C@@H](CC(C)C)C(=O)N[C@@H](CC(C)C)C(=O)N[C@@H](CC(N)=O)C(=O)N[C@H](C(=O)O)[C@@H](C)O)C(C)C` [Example 3] (H-HSQGTFTSDYSKYLDSKKAQEFVK([AEEA-AEEA-γGlu-C18 diacid])WLLNT-OH), on DPP-IV, the half-life at 10 μM was found to be 4.33 h. Moreover, a half-maximal response on glucagon receptor [1] (EC50) required 0.019 nM. The half-life in the series “in vivo” (iv, 15 nmol/kg) is about 8.6 h; in “in vivo” (sc, 30 nmol/kg), about 9.4 h.
Regarding `CC(C)C[C@H](NC(=O)[C@H](Cc1ccc(O)cc1)NC(=O)[C@H](CCCNC(=N)N)NC(=O)[C@H](CO)NC(=O)[C@H](Cc1ccc(O)cc1)NC(=O)[C@H](CC(=O)O)NC(=O)[C@H](CO)NC(=O)[C@@H](NC(=O)[C@H](Cc1ccccc1)NC(=O)[C@@H](NC(=O)CNC(=O)[C@H](CCC(N)=O)NC(=O)[C@H](CO)NC(=O)[C@@H](N)Cc1c[nH]cn1)[C@@H](C)O)[C@@H](C)O)C(=O)N[C@@H](CC(=O)O)C(=O)N[C@@H](CO)C(=O)N[C@@H](CCCNC(=N)N)C(=O)N[C@@H](CCCNC(=N)N)C(=O)N[C@@H](C)C(=O)N[C@@H](CCC(N)=O)C(=O)N[C@@H](CC(=O)O)C(=O)N[C@@H](Cc1ccccc1)C(=O)N[C@H](C(=O)N[C@@H](CCCCNC(=O)COCCOCCNC(=O)COCCOCCNC(=O)CC[C@H](NC(=O)CCCCCCCCCCCCCCCCC(=O)O)C(=O)O)C(=O)N[C@@H](Cc1c[nH]c2ccccc12)C(=O)N[C@@H](CC(C)C)C(=O)N[C@@H](CC(C)C)C(=O)N[C@@H](CC(N)=O)C(=O)N[C@H](C(=O)O)[C@@H](C)O)C(C)C` [Example 20] (H-HSQGTFTSDYSRYLDSRRAQDFVK([AEEA-AEEA-γGlu-C18 diacid])WLLNT-OH; N-terminus and C-terminus assumed), at glucagon receptor [2], the EC50 was found to be 0.109 nM.
Same read-out and setting: to `CC(C)C[C@H](NC(=O)[C@H](Cc1ccc(O)cc1)NC(=O)[C@H](CCCCN)NC(=O)[C@H](CO)NC(=O)[C@H](Cc1ccc(O)cc1)NC(=O)[C@H](CC(=O)O)NC(=O)[C@H](CO)NC(=O)[C@@H](NC(=O)[C@H](Cc1ccccc1)NC(=O)[C@@H](NC(=O)CNC(=O)[C@H](CCC(N)=O)NC(=O)[C@H](CO)NC(=O)[C@@H](N)Cc1c[nH]cn1)[C@@H](C)O)[C@@H](C)O)C(=O)N[C@@H](CC(=O)O)C(=O)N[C@@H](CO)C(=O)N[C@@H](CCCNC(=N)N)C(=O)N[C@@H](CCCNC(=N)N)C(=O)N[C@@H](C)C(=O)N[C@@H](CCC(N)=O)C(=O)N[C@@H](CCC(=O)O)C(=O)N[C@@H](Cc1ccccc1)C(=O)N[C@H](C(=O)N[C@@H](CCCCNC(=O)COCCOCCNC(=O)COCCOCCNC(=O)CC[C@H](NC(=O)CCCCCCCCCCCCCCCCC(=O)O)C(=O)O)C(=O)N[C@@H](Cc1c[nH]c2ccccc12)C(=O)N[C@@H](CC(C)C)C(=O)N[C@@H](CC(C)C)C(=O)N[C@@H](CC(N)=O)C(=O)N[C@H](C(=O)O)[C@@H](C)O)C(C)C` [Example 21] belongs 0.021 nM.
With `CC(C)C[C@H](NC(=O)[C@H](Cc1ccc(O)cc1)NC(=O)[C@H](CCCCN)NC(=O)[C@H](CO)NC(=O)[C@H](Cc1ccc(O)cc1)NC(=O)[C@H](CC(=O)O)NC(=O)[C@H](CO)NC(=O)[C@@H](NC(=O)[C@H](Cc1ccccc1)NC(=O)[C@@H](NC(=O)[C@@H](Cc1ccccc1)NC(=O)[C@H](CCC(N)=O)NC(=O)[C@H](CO)NC(=O)[C@@H](N)Cc1c[nH]cn1)[C@@H](C)O)[C@@H](C)O)C(=O)N[C@@H](CC(=O)O)C(=O)N[C@@H](CO)C(=O)N[C@@H](CCCNC(=N)N)C(=O)N[C@@H](CCCNC(=N)N)C(=O)N[C@@H](C)C(=O)N[C@@H](CCC(N)=O)C(=O)N[C@@H](CC(=O)O)C(=O)N[C@@H](Cc1ccccc1)C(=O)N[C@H](C(=O)N[C@@H](CCCCNC(=O)CC[C@H](NC(=O)CC[C@H](NC(=O)COCCOCCNC(=O)COCCOCCNC(=O)CC[C@H](NC(=O)CCCCCCCCCCCCCCCCC(=O)O)C(=O)O)C(=O)O)C(=O)O)C(=O)N[C@@H](Cc1c[nH]c2ccccc12)C(=O)N[C@@H](CC(C)C)C(=O)N[C@@H](CC(C)C)C(=O)N[C@@H](CO)C(=O)N[C@H](C(=O)O)[C@@H](C)O)C(C)C` [Example 99, N^ε24-[(4S)-4-carboxy-4-[[(4S)-4-carboxy-4-[[2-[2-[2-[[2-[2-[2-[[(4S)-4-carboxy-4-(17-carboxyheptadecanoylamino)butanoyl]amino]ethoxy]ethoxy]acetyl]amino]ethoxy]ethoxy]acetyl]amino]butanoyl]amino]butanoyl]-[D-Phe4,Lys24,Leu27,Ser28]-Glucagon] (H-HSQ[dF]TFTSDYSKYLDSRRAQDFVK([γGlu-γGlu-AEEA-AEEA-γGlu-C18 diacid])WLLST-OH), the EC50 at glucagon receptor [1] was found to be 0.044 nM.
As for `CC(C)C[C@H](NC(=O)[C@H](Cc1ccc(O)cc1)NC(=O)[C@H](CCCCN)NC(=O)[C@H](CO)NC(=O)[C@H](Cc1ccc(O)cc1)NC(=O)[C@H](CC(=O)O)NC(=O)[C@H](CO)NC(=O)[C@@H](NC(=O)[C@H](Cc1ccccc1)NC(=O)[C@@H](NC(=O)CNC(=O)[C@H](CCC(N)=O)NC(=O)[C@H](CO)NC(=O)[C@@H](N)Cc1c[nH]cn1)[C@@H](C)O)[C@@H](C)O)C(=O)N[C@@H](CC(=O)O)C(=O)N[C@@H](CCCCNC(=O)CC[C@H](NC(=O)CC[C@H](NC(=O)COCCOCCNC(=O)COCCOCCNC(=O)CC[C@H](NC(=O)CCCCCCCCCCCCCCCCC(=O)O)C(=O)O)C(=O)O)C(=O)O)C(=O)N[C@@H](CCCNC(=N)N)C(=O)N[C@@H](CCCNC(=N)N)C(=O)N[C@@H](C)C(=O)N[C@@H](CCC(N)=O)C(=O)N[C@@H](CCC(=O)O)C(=O)N[C@@H](Cc1ccccc1)C(=O)N[C@H](C(=O)N[C@@H](CCC(N)=O)C(=O)N[C@@H](CCCNC(=N)N)C(=O)N[C@@H](CC(C)C)C(=O)N[C@@H](CC(C)C)C(=O)N[C@@H](CC(N)=O)C(=O)N[C@H](C(=O)O)[C@@H](C)O)C(C)C` [Example 100, N^ε16-[(4S)-4-carboxy-4-[[(4S)-4-carboxy-4-[[2-[2-[2-[[2-[2-[2-[[(4S)-4-carboxy-4-(17-carboxyheptadecanoylamino)butanoyl]amino]ethoxy]ethoxy]acetyl]amino]ethoxy]ethoxy]acetyl]amino]butanoyl]amino]butanoyl]-[Lys^16,Glu^21,Arg^25,Leu^27]-Glucagon] (H-HSQGTFTSDYSKYLDK([γGlu-γGlu-AEEA-AEEA-γGlu-C18 diacid])RRAQEFVQRLLNT-OH), the EC50 on glucagon receptor [1] amounted to 0.45 nM.
Still for that read-out and setting: to `CC(C)C[C@H](NC(=O)[C@H](Cc1ccc(O)cc1)NC(=O)[C@H](CCCCN)NC(=O)[C@H](CO)NC(=O)[C@H](Cc1ccc(O)cc1)NC(=O)[C@H](CC(=O)O)NC(=O)[C@H](CO)NC(=O)[C@@H](NC(=O)[C@H](Cc1ccccc1)NC(=O)[C@@H](NC(=O)CNC(=O)[C@H](CCC(N)=O)NC(=O)[C@H](CO)NC(=O)[C@@H](N)Cc1c[nH]cn1)[C@@H](C)O)[C@@H](C)O)C(=O)N[C@@H](CC(=O)O)C(=O)N[C@@H](CO)C(=O)N[C@@H](CCCNC(=N)N)C(=O)N[C@@H](CCCNC(=N)N)C(=O)N[C@@H](C)C(=O)N[C@@H](CCC(=O)O)C(=O)N[C@@H](CC(=O)O)C(=O)N[C@@H](Cc1ccccc1)C(=O)N[C@H](C(=O)N[C@@H](CCCCNC(=O)CC[C@H](NC(=O)CC[C@H](NC(=O)COCCOCCNC(=O)COCCOCCNC(=O)CC[C@H](NC(=O)CCCCCCCCCCCCCCCCC(=O)O)C(=O)O)C(=O)O)C(=O)O)C(=O)N[C@@H](Cc1c[nH]c2ccccc12)C(=O)N[C@@H](CC(C)C)C(=O)N[C@@H](CC(C)C)C(=O)N[C@@H](CO)C(=O)N[C@H](C(=O)O)[C@@H](C)O)C(C)C` [Example 101, N^ε24-[(4S)-4-carboxy-4-[[(4S)-4-carboxy-4-[[2-[2-[2-[[2-[2-[2-[[(4S)-4-carboxy-4-(17-carboxyheptadecanoylamino)butanoyl]amino]ethoxy]ethoxy]acetyl]amino]ethoxy]ethoxy]acetyl]amino]butanoyl]amino]butanoyl]-[Glu^20,Lys^24,Leu^27,Ser^28]-Glucagon] belongs 0.307 nM.
